Measured values published in patent US10376518B2, “Methods for the treatment of autoimmune diseases” (UCL Business PLC, priority 2013, dated 2019).

What was measured:
[1] = system: FOXP3 expression by CD8+ T cells; experiment: CD8+FOXP3+ Treg induction in PBMC cultures, flow cytometry; assay type: cell-based, human; settings: for FOXP3 expression by CD8+ T cells: 24 h
Source text: Isolation of cell populations. PBMC were isolated by Ficoll-Paque Plus (GE Healthcare) gradient centrifugation, resuspended to 10^7 cells/ml in FCS (Biosera) and 5% DMSO (Sigma-Aldrich), and frozen until subsequent use. CD8^+ T cells were negatively isolated and monocytes, CD4^+ T cells or B cells were depleted from PBMCs by positive selection with magnetic beads (Miltenyi, Biotec). Monocyte subsets or CD8^+ T cells interacting with monocytes were FACS sorted with the FACSAria (Beckton, Dickinson) based on expression of HLA-DR and CD14 or CD8 respectively.
(§1) Cell Cultures. For CD8^+FoxP3^+ Treg induction, PBMC were cultured with anti-CD3 mAb (OKT3 (e-bioscience), HIT3A (e-bioscience), UCHT1 (e-bioscience), Otelixizumab (GSK)) or anti-CD3 F(Ab)2 (GSK) in RPMI1640, (Sigma-Aldrich), 10% fetal calf serum (Biosera) or human serum type AB (Lonza), 100 U/mg/ml penicillin/streptomycin (Sigma-Aldrich) for 24 h or 5 d. Alternatively, 1 μg/ml of agonist antibodies against CD28 (e-bioscience) or TNFRII (Hycult Biotech) in combination with OKT3 were utilized in PBMC cultures depleted of monocytes. For cytokine neutralization cultures, PBMC were cultured with OKT3 alone or in the presence of an isotype control or 10 μg/ml anti-TNF-α (R&D systems) or anti-IL-1β mAbs (R&D systems), 12.5 μg/ml anti-TGF-β mAb (R&D systems) or 0.1 μg/ml anti-IL-6 mAb (R&D systems). To inhibit monocyte activation of CD8^+ T cells, 10 μg/ml anti-CD80 (R&D systems) or anti-CD86 (R&D systems) were utilized. To convert a non-responder CD8^+ T cell into a responder, whole PBMC were incubated with 10 μg/ml TAPI (Enzo Life Sciences) for 1 h at room temperature, or with 5 μM selective p38 MAPK inhibitor, BIRB 796 (Merck Millipore), for 2 hours at 37° C. before culture with OKT3.
Flow cytometry and soluble cytokine detection. Cell surface staining and intracellular staining were performed using the eBioscience FOXP3 staining buffer set as per manufacturers' instructions. For CD8^+ T cell staining, CD8-FITC and CD4-V450 were used to identify a pure CD8^+ T cell population. CD25-PECy7, TNFRII-APC, CTLA-4-PE, TGFβ-APC were used for characterization. For monocyte and B cells staining, CD14-APC, CD16-PE, HLA-DR-PECy7, CD19-APC were used in combination with membrane TNFα-PE. FOXP3-PE was used to detect intracellular FOXP3. For analysis of human intracellular cytokine production, PBMC were stimulated for 4 h with 50 ng/ml PMA, 250 ng/ml ionomycin (Sigma-Aldrich), and Golgi-Plug (BD, Biosciences) in complete medium. IFN-γ-PECy7, IL-10-APC, IL-2-APC, IL-17-APC, TNF-α-APC and appropriate isotype controls were utilized. For staining of membrane TNF-α versus soluble TNF-α production by monocytes, PBMC were cultured with anti-CD3 mAb alone, or after pre-incubation with TAPI, for 24 h. Supernatants were subsequently removed and replaced with the aforementioned stimulation mix for 4 h. PBMC were then stained for CD14-APC and membrane TNF-α-PE, before intracellular staining for TNF-α-FITC. Data were acquired on an LSRII (Beckton, Dickinson) and analyzed with FlowJo (TreeStar). IL-17 and IFN-γ levels from suppression assay supernatants were measured by mosaic ELISA (R&D Systems) as described by manufacturer's instruction and analyzed by Quansys Q-View™ Software (R&D Systems).

[2] = system: membrane TNF-α expression by monocytes; experiment: membrane TNF-α staining of monocytes in PBMC, flow cytometry; assay type: cell-based, human; settings: PBMC pre-incubated 1 h at room temperature, 10 μg/ml
Experimental: as §1, with “To convert a non-responder CD8^+ T cell into a responder, whole PBMC were incubated with 10 μg/ml TAPI (Enzo Life Sciences) for 1 h at room temperature, or with 5 μM selective p38 MAPK inhibitor, BIRB 796 (Merck Millipore), for 2 hours at 37° C. before culture with OKT3.” left out
Flow cytometry and soluble cytokine detection. […] Data were acquired on an LSRII (Beckton, Dickinson) and analyzed with FlowJo (TreeStar). IL-17 and IFN-γ levels from suppression assay supernatants were measured by mosaic ELISA (R&D Systems) as described by manufacturer's instruction and analyzed by Quansys Q-View™ Software (R&D Systems).

[3] = fixed monocytes reintroduced to autologous monocyte-depleted PBMC

F(Ab)2 of Otelixizumab: F(Ab)2 fragment of the anti-CD3 antibody Otelixizumab (GSK)
FOXP3 expression by CD8+ T cells [1, 3]: successfully induced FOXP3 expression

Cc1ccc(-n2nc(C(C)(C)C)cc2NC(=O)Nc2ccc(OCCN3CCOCC3)c3ccccc23)cc1 [BIRB 796]
FOXP3 expression by CD8+ T cells that did not initially respond to CD3-specific stimulation ([1]; RA PBMC pre-incubated 5 μM, 2 h, 37° C., then OKT3 24 h, non-responders): resulted in FOXP3 expression
response of CD8+ T cells that could already induce FOXP3 expression ([1]; RA PBMC pre-incubated 5 μM, 2 h, 37° C., then OKT3 24 h, responders): did not alter the response

OKT3: anti-CD3 mAb clone (e-bioscience)
FOXP3 expression by CD8+ T cells [1, 3]: successfully induced FOXP3 expression
FOXP3 expression by CD8+ T cells ([1]; whole RA PBMC, 1 μg/ml): successfully increased levels of FOXP3 expression

TAPI
maximal induction of CD8+FOXP3+ Treg from prior non-responders ([1]; RA PBMC pre-incubated with TAPI, then anti-CD3 mAb 24 h): approximately 50%
induction of CD8+FOXP3+ Treg in healthy individuals ([1]; healthy PBMC pre-incubated with TAPI, then OKT3 24 h): this effect was not observed in healthy individuals
expression of membrane TNF-α by monocytes [2]: increased expression of membrane TNF-α by monocytes
